Active and inactive are the calls of the source. The rule behind the calls is not given here.
The compounds below were run on 3C-like protease (Infectious bronchitis virus) (assay: blockers of SARS 3CLpro activity – biochemical, fluorescence, set 3, late-stage follow-up (AID 493245)). Conditions: recombinant 3CLpro, fluorogenic substrate cleavage; at 100 µM; active compounds read high.
For `O=C(Nc1ccc(N(C(=O)Cn2nnc3ccccc32)C(C(=O)NCc2ccccc2)c2cccc(F)c2)cc1)C1CCC1` (stereo unspecified), the inhibition was 62.5%. In the case of `CC(C)C(=O)Nc1ccc(N(C(=O)Cn2nnc3ccccc32)C(C(=O)NCc2ccccc2)c2cccc(F)c2)cc1` (stereo unspecified), the inhibition is reported as 73.5%. `CC(C)(C)NC(=O)C(c1cccnc1)N(C(=O)c1ccco1)C12CC3CC(CC(C3)C1)C2` (stereo unspecified) was tested, and the inhibition was 1.27% (inactive). Compound `O=C(Nc1ccc(N(C(=O)Cn2nnc3ccccc32)C(C(=O)NCc2ccccc2)c2cccc(F)c2)cc1)C1CC1` (stereo unspecified) has an inhibition of 68.8%. For `CC(C)(C)NC(=O)C(c1cccnc1)N(C(=O)c1ccco1)C1CCCCC1` (stereo unspecified), the inhibition was 4.49% (inactive). With `CC(C)(C)NC(=O)C(c1cccnc1)N(C(=O)c1ccco1)C1CC2CCC1C2` (stereo unspecified) the inhibition was 5.71% (inactive).

— PubChem BioAssay AID493245 (The Scripps Research Institute Molecular Screening Center, 2011)
